Measured values as given in ChEMBL document CHEMBL1201862, “PubChem BioAssay data set” (2004).
Active and inactive are the calls of the source.

Tests used:
INS1 = test: INS-1E survival protection against cytokine death – cell-based, luminescence, retest, dose response (AID 449756); format: functional; conditions: Rattus norvegicus;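 also: cell death triggered by IL-1 beta plus TNF-alpha plus IFN-gamma mixture; protective hits raise ATP signal compared with cytokine alone wells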
Jurkat = test: blockers of NF-kB activation in T cells – Jurkat, luciferase reporter, luminescence, B- and T-cell, dose response (AID 489004); format: functional, cell-based; conditions: Homo sapiens;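 also: NF-kB luciferase reporter Jurkat cells stimulated with PMA plus ionomycin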
[1] = Trypanosoma cruzi growth suppression in host cells – NIH3T3 host cells, beta-gal luminescence, confirmation (AID 2044); format: functional, cell-based;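 also: intracellular parasites grown in NIH/3T3 mouse fibroblasts as host cells; luminescent beta-galactosidase reporter signal from transgenic T. cruzi replicating inside host cells; inhibitors lower the luminescence signal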
[2] = decrease of insulin promoter-GFP reporter – imaging, high-content screening, mouse beta cells (AID 1628); format: functional; conditions: MIN6
[3] = MIN6 cell viability loss – mouse insulinoma, cytotoxicity control, dose response (AID 2122); format: functional;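 also: confirmatory high-throughput counterscreen run to flag cytotoxic compounds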
[4] = HEK-293T viability loss, compound-treated – cell-based, uHTS hits, cytotoxicity control for B/T-cell NF-kB inhibitor project, dose response (AID 489019); format: functional;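 also: IC50 reflects cytotoxicity as loss of cell viability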
[5] = target: Multidrug resistance protein CDR2 (Candida albicans (strain SC5314 / ATCC MYA-2876) (Yeast), UniProt P78595); test: blockers of Nile Red efflux by Candida CDR2 – S. cerevisiae AD1-8u, singleplex, Cherry Pick2 set, dose response (AID 623994); format: functional; conditions: read-out: EC50_MICROM
[6] = NIH3T3 cell viability loss – ATP luminescence, mouse fibroblasts, counter-screen, dose response (AID 2010); format: functional, cell-based;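 also: cells exposed to compound for about 90 hours before reading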
Genome polyprotein = Genome polyprotein (dengue virus type 2, UniProt P29990); test: flavivirus cap methylation enzyme inhibition – biochemical, confirmation dose response, primary screen (AID 588689); format: functional
Leucine aminopeptidase = target: T1, Leucine aminopeptidase (Plasmodium falciparum 3D7, UniProt Q8IL11); test: P. falciparum M17LAP inhibitors, primary screen, biochemical, fluorogenic H-Leu-NHMec substrate, 1536-well (AID 1619); format: functional
T1 sequence (Q8IL11 whole entry): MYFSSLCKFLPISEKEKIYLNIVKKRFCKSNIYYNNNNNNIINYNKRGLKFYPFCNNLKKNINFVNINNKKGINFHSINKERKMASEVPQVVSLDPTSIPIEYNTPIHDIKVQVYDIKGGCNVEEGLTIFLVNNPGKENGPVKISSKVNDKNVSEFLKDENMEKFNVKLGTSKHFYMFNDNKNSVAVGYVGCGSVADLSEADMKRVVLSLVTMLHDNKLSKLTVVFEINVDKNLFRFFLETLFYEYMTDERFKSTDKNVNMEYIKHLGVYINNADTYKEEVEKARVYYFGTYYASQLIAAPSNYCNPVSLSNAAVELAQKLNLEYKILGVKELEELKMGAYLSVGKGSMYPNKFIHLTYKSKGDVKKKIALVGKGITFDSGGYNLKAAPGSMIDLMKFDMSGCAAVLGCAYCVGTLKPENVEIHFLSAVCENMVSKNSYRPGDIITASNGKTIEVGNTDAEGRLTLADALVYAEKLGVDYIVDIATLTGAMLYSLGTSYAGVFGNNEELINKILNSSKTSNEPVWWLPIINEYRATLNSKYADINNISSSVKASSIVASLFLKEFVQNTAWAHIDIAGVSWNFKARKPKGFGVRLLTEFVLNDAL

[7] = target: T2, Probable nicotinate-nucleotide adenylyltransferase (Staphylococcus aureus (strain N315), UniProt P65502); format: functional, Staphylococcus aureus subsp. aureus N315; conditions: read-out: IC50_Mean;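 as to IC50 Mean: confirmatory dose-response retesting of NadD inhibitor hits first found in an ultra-high-throughput screen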
Procathepsin L = Procathepsin L (Homo sapiens, UniProt P07711); test: CTSL1 protease inhibition – biochemical, QFRET, 1536-well, counter-screen for M1/M17 aminopeptidase inhibitor project, dose response (AID 2214)
fMet-Leu-Phe receptor = fMet-Leu-Phe receptor (Homo sapiens, UniProt P21462); test: formyl peptide receptor binders – dose response (AID 519); format: functional
[8] = target: T2, Probable nicotinate-nucleotide adenylyltransferase; format: functional, Staphylococcus aureus subsp. aureus N315
Aspartyl aminopeptidase = target: T3, Aspartyl aminopeptidase (Plasmodium falciparum 3D7, UniProt Q8I2J3); test: Counterscreen for inhibitors of M1 and M17 aminopeptidases: QFRET-based biochemical high throughput dose response assay for inhibitors of the Plasmodium falciparum M18 Aspartyl Aminopeptidase (PFM18AAP). [Related PubChem assays: 1619 (Screening assay (M17LAP inhibitors).), 1445 (Screening assay (M1AAP inhibitors).)]
T3 sequence (Q8I2J3 whole entry): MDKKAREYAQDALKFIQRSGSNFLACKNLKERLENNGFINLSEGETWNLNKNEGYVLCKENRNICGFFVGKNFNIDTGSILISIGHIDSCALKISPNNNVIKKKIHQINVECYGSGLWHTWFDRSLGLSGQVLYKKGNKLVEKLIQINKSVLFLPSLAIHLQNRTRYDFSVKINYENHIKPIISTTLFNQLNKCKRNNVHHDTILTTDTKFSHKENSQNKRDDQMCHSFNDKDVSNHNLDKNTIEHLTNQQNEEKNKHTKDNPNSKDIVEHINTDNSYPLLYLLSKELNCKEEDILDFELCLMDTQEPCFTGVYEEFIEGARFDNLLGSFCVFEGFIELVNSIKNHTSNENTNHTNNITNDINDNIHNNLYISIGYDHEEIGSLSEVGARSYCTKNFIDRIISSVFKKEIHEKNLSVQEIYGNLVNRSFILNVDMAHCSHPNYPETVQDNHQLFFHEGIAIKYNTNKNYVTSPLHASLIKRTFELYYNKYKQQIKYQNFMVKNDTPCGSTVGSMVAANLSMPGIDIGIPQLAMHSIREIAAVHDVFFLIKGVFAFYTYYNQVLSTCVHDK

[9] = target: Long-chain-fatty-acid--AMP ligase FadD28 (Mycobacterium tuberculosis, UniProt P9WQ59); test: Fluorescence polarization aasay to screen for inhibitors that compete for the binding of FadD28 to a bisubstrate Measured in Biochemical System Using Plate Reader - 2147-01_Inhibitor_Dose_CherryPick_Activity.; format: functional, Mycobacterium tuberculosis H37Rv
[10] = target: T4, Small ubiquitin-related modifier 1 (Homo sapiens, UniProt P63165); test: SUMO1 protein-protein binding blockers, potency – biochemical, FRET, dose response (AID 624383); format: functional; conditions: read-out: IC50_Mean
[11] = target: T4, Small ubiquitin-related modifier 1; test: SUMO1 protein interaction blockers, potency – biochemical, fluorescence polarization, uHTS hits, dose response (AID 624382); format: functional; conditions: read-out: IC50_Mean
[12] = target: T5, Rac GTPase-activating protein 1 (Homo sapiens, UniProt Q9H0H5); test: blockers of MgcRacGAP-driven Rac1 GTP hydrolysis – biochemical, ADP Hunter fluorescence, primary and confirmatory, confirmation (AID 624330); format: functional
T5 sequence (Q9H0H5 whole entry): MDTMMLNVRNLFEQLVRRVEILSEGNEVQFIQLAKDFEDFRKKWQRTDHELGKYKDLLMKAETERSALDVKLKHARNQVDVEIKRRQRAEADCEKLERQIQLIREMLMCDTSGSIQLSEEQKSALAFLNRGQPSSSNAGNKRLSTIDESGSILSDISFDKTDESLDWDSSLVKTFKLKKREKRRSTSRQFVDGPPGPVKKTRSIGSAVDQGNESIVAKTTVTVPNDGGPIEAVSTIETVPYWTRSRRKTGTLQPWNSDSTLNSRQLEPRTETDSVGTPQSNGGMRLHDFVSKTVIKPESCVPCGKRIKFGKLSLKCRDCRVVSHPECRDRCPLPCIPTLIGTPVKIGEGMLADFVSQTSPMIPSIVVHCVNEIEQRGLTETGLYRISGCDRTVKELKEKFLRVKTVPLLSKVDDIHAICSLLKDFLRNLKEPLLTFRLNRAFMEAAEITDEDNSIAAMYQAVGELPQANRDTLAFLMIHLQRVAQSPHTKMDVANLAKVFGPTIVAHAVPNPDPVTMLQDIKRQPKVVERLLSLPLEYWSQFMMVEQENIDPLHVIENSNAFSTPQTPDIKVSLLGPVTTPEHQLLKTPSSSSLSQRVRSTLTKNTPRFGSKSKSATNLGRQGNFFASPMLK

[13] = target: 26S proteasome non-ATPase regulatory subunit 14 (Homo sapiens, UniProt O00487); test: inhibition of proteasome subunit RPN11 – biochemical, fluorescence polarization, uHTS hits, confirmation (AID 602368); format: functional
Prothrombin = Prothrombin (Bos taurus, UniProt P00735); test: thrombin protease inhibitors – biochemical, fluorescence polarization, uHTS hits, dose response (AID 602369); format: functional
[14] = target: 72 kDa type IV collagenase (Homo sapiens, UniProt P08253); test: Dose Response validation of uHTS RPN11 inhibitor hits using a MMP-2 Fluorescence assay.; format: functional
[15] = bead-based luminescence quenchers, dual-tagged ARNT – biochemical, AlphaScreen, cherry-pick, artefact control for ARNT-TACC3 interaction inhibitor project, dose response (AID 651705); format: functional;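 also: AlphaScreen bead proximity signal that flags compounds interfering with the detection technology; potency reflects signal decrease which marks the compound as an assay artifact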
[16] = target: T6, Sentrin-specific protease 1 (Homo sapiens, UniProt Q9P0U3); test: Dose response confirmation of small molecule inhibitors of the catalytic domain of the SUMO protease, SENP1 in a FRET assay.; format: functional; conditions: read-out: IC50_Mean
[17] = target: T6, Sentrin-specific protease 1; test: SENP1 catalytic domain blockers, concentration series – biochemical, kinetic FRET, dose response (AID 651697); format: functional; conditions: read-out: IC50_Mean

T6 sequence (Q9P0U3 whole entry, the tested form may be a part): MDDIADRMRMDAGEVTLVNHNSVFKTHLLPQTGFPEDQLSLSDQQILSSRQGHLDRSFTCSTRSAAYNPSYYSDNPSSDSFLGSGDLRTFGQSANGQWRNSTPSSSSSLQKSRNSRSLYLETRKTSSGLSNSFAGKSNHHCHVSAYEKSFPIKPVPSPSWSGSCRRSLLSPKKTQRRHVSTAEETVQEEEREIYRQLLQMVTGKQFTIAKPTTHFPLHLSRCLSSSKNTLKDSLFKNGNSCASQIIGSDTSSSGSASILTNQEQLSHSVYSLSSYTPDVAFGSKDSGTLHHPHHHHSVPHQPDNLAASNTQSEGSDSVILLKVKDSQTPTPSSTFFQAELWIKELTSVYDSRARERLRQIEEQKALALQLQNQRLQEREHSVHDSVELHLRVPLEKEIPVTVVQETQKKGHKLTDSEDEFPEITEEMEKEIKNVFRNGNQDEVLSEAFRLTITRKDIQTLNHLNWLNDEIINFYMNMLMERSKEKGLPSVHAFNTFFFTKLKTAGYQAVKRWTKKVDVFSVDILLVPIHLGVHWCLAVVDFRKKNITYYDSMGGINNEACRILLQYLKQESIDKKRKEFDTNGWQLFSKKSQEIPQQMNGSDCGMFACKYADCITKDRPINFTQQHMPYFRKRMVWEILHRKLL
T2 sequence (P65502 whole entry): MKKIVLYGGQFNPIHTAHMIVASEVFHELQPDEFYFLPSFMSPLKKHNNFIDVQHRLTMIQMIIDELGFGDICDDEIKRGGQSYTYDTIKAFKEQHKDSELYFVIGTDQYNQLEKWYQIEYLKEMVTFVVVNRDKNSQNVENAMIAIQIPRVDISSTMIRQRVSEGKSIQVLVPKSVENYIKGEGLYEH
T4 sequence (P63165 whole entry): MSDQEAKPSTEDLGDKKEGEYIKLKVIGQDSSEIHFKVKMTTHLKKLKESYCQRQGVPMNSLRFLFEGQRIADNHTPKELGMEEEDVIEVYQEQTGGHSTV
Chain of Procathepsin L (P07711 whole entry): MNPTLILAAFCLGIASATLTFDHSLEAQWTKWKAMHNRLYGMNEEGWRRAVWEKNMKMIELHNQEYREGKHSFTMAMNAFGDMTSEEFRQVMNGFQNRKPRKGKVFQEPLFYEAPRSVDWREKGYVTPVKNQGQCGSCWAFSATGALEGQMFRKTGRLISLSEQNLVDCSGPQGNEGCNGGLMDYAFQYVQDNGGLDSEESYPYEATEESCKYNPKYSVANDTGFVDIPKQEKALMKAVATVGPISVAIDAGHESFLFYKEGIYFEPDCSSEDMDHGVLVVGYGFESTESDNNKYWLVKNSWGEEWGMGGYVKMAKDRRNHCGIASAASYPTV
Chain of Genome polyprotein (P29990 2492-3391 limits assumed): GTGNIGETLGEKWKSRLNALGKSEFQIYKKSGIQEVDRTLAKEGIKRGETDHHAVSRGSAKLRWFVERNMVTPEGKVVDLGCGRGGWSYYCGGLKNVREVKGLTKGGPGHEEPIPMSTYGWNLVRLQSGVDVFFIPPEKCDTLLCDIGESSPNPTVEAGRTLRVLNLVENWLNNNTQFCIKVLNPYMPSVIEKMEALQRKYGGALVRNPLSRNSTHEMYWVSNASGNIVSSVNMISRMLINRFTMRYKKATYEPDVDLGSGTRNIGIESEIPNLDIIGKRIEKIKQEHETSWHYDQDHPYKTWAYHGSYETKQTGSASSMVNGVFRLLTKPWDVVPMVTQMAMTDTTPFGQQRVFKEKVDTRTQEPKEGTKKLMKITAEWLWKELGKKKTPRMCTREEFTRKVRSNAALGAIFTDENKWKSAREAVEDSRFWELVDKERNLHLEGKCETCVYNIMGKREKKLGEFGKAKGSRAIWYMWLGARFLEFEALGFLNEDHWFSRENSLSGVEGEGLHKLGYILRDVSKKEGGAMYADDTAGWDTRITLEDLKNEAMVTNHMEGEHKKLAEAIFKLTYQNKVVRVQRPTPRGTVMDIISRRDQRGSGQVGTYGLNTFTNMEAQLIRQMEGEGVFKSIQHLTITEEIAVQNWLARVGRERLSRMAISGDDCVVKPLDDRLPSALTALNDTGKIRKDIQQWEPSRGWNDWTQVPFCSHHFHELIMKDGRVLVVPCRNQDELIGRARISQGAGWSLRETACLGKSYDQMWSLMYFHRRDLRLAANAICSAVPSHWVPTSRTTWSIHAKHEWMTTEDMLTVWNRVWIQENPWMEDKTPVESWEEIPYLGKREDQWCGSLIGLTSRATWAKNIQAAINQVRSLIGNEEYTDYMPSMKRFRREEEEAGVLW
Chain of 26S proteasome non-ATPase regulatory subunit 14 (O00487 whole entry): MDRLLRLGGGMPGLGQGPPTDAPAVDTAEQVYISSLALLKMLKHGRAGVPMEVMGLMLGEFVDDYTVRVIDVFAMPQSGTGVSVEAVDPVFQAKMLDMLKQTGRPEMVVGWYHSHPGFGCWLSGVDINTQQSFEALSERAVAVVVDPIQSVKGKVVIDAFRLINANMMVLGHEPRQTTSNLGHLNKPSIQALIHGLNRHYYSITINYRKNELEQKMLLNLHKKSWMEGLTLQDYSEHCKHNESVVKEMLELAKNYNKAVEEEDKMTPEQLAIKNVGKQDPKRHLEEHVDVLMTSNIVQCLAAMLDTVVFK
Chain of fMet-Leu-Phe receptor (P21462 whole entry): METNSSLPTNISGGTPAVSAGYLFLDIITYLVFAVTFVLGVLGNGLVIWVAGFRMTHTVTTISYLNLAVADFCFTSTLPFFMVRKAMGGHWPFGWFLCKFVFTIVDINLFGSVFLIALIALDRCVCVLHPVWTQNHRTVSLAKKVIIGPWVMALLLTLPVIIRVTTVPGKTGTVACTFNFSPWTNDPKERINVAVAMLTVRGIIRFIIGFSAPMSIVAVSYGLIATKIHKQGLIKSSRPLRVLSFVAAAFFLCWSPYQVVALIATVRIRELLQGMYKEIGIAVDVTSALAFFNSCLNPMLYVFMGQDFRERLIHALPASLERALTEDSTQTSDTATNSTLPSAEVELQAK
Chain of Long-chain-fatty-acid--AMP ligase FadD28 (P9WQ59 whole entry): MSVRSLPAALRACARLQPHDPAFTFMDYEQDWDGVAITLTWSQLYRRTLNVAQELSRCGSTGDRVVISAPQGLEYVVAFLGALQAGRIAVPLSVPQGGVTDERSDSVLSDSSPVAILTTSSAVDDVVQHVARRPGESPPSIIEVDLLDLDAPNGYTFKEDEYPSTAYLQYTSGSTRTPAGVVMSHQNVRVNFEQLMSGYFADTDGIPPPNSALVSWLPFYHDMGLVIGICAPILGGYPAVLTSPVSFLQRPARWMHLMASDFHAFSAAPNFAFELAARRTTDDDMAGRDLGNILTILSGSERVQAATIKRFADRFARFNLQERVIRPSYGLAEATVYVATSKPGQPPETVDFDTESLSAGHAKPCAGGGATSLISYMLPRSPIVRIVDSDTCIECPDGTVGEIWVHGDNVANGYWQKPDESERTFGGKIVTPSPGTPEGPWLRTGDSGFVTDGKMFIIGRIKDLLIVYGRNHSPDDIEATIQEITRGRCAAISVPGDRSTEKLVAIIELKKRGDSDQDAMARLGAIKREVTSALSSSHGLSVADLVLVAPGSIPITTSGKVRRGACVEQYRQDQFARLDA
Chain of 72 kDa type IV collagenase (P08253 whole entry): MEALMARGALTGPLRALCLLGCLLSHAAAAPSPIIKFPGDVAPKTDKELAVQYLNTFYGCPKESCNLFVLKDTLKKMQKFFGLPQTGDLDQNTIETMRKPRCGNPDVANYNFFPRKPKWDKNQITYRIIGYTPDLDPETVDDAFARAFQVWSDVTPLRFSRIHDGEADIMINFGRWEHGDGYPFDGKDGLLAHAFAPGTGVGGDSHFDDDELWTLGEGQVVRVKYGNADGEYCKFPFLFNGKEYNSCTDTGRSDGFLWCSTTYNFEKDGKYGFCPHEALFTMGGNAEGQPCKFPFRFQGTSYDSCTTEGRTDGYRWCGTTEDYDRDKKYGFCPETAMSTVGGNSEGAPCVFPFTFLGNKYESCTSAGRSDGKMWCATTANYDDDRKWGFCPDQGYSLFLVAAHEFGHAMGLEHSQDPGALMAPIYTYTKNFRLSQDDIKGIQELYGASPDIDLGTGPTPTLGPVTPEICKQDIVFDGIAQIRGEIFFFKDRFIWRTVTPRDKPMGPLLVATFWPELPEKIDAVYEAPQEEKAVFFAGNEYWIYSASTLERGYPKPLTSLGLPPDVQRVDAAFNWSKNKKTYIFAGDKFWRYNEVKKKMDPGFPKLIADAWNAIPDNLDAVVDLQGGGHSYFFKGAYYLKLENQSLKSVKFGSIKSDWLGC

For `NC1=NC[C@H](Cc2ccc(O)cc2)N1CCCCC1CCCCC1`, the AC50 (INS1) was 2.43 µM (active), the IC50 (Jurkat) was 8.18 µM (active) and the EC50 [1] was 1.4 µM (active). For the same molecule, the IC50 [2] was 3.72 µM (active), the IC50 [3] was 4.52 µM (active) and the IC50 [4] was 67.6 µM (inactive). For the same molecule, the EC50 [5] was 15.9 µM (active) and the EC50 [6] was > 60 µM (not active).

With `CCOC(=O)c1c(-c2ccc(-c3ccccc3)cc2)csc1NC(=O)C1C2CCC(O2)C1C(=O)O` (stereo not given) the IC50 (Genome polyprotein) was 29.6 µM (active), the IC50 (Leucine aminopeptidase) was 6.09 µM (active) and the IC50 [7] was 15.3 µM (active). For the same molecule, the IC50 (Procathepsin L) was > 59.6 µM (not active), the Ki (fMet-Leu-Phe receptor) was > 66.7 µM (inactive) and the IC50 [8] was 5.15 µM (active). The IC50 (Aspartyl aminopeptidase) was 38.5 µM (not active).

For `CCc1ccc(NC(=S)N(Cc2ccc(Cl)cc2)Cc2ccc(C(=O)O)cc2)cc1`, the AC50 [9] was > 100 µM (inactive).

In the case of `CCCc1c(C)nc2ccc(C(=O)O)cc2c1S`, the IC50 [10] is reported as 18 µM (active), the IC50 [11] is reported as > 66.6 µM (inactive) and the IC50 [12] is reported as 72.6 µM (active). The IC50 [13] was 22.8 µM (active), the IC50 (Prothrombin) was 72.7 µM (active) and the IC50 [14] was > 100 µM (inactive).

With `COCCn1c(-c2ccccc2)cnc1N` the AC50 [15] was 115 µM (active).

With `CC(=O)Oc1ccc(Cl)cc1/C=C/c1ccc2ccccc2n1` the IC50 [16] was 2.22 µM (active) and the IC50 [17] was 3.28 µM (active).
